Consider 2 molecules from PMC7665192, “A natriuretic peptide from Arabidopsis thaliana (AtPNP-A) can modulate catalase 2 activity” (Scientific Reports, 2020).

Positions of bridges follow the written chain, without caps; N, C: chain ends. Residues, ends and D or L forms follow the SMILES beside them. *: point of attachment. Biotin = O=C1N[C@H]2[C@H](CS[C@H]2CCCCC(=O)*)N1

In one assay the test system is CAT2. The assay can be described thus: Zymogram of CAT isoforms from treated seedlings. The assay is classed as in vivo, Arabidopsis thaliana. Conditions: 1 nM peptide, sprayed 20 min before harvesting; mean ± SD, n = 3, Student's t-test P < 0.05. On the procedure: Enzymatic activity of CAT isozymes and total CAT activities of protein extracted from WT and atpnp-a or cat2-2 mutant lines, when indicated sprayed with 1 nM pAtPNP-A or pScr 20 min before harvesting, were determined zymographically and spectrophotometrically, as described in[56]. Relative quantification of intensity of bands corresponding to different CAT isoforms was performed with ImageJ version 1.48 (https://imagej.nih.gov/ij/). Enzymatic activity of the rCAT2 in the presence of absence of 100 nM rAtPNP-A, pAtPNP-A or pScr were determined with the use of Amplex Red catalase assay kit (Invitrogen) according to the manufacturer’s instructions.
Figure 3 AtPNP-A directly interacts with CAT2 to modulate its enzymatic activity in vitro. (a) Zymogram depicting changes in the enzymatic activity of CAT isoforms extracted from wild type (WT) or cat2-2 knockout mutant seedlings in response to 1 nM pAtPNP-A or pScr. Densitometric semi-quantification of bands corresponding to CAT2, normalized to the loading control (dark-coloured band on zymogram) for WT samples treated with 1 nM pAtPNP-A or pScr (mean ± SD, Student’s t-test, n = 3, P < 0.05). […] (b) Total CAT activity in protein extracted from WT seedlings assayed with Amplex Red catalase assay kit in the presence of 1 nM pAtPNP-A, rAtPNP-A, or pScr. […] (c) Enzymatic activity of rCAT2 in the presence of 100 nM pAtPNP-A, rAtPNP-A, or pScr.

In assay [1] the test system is ADH5, alcohol dehydrogenase 2. The assay can be described thus: Yeast two-hybrid (Y2H) screen. The settings on record: bait AtPNP-A amino acids 26–130, prey At5g43940.1. The assay is classed as binding, A. thaliana. The method, then: (§1) The Y2H screen using AtPNP-A as bait was carried out by Dualsystems Biotech AG (Zurich, Switzerland). The bait construct for the screening was made by subcloning the cDNA fragment encoding exported portion of AtPNP-A (amino acids 26 to 130) (Fig. 1a) into the pLexA-DIR vector (Dualsystems Biotech AG). The bait construct was transformed into the strain NMY32 (MATa his3Δ200 trp1-901 leu2-3,112 (lexAop)8-ADE2 LYS2::(lexAop)4-HIS3 URA3::(lexAop)8-lacZ GAL4) using standard procedures. Correct expression of the bait was verified by western blotting of cell extracts using a mouse monoclonal antibody directed against the LexA domain (Dualsystems Biotech AG). The absence of self-activation was verified by co-transformation of the bait together with a control prey and selection on minimal medium lacking tryptophan, leucine, and histidine (selective medium). For the Y2H screen, the bait was co-transformed together with a normalized A. thaliana universal P02403 cDNA library (Dualsystems Biotech AG) into NMY32. 3.1 × 10^6 transformants were screened, yielding 96 transformants that grew on selective medium. […] Library plasmids were isolated from positive clones. The identity of positive interactants was determined by sequencing. DNA sequences translated in all three reading frames and searching against the SwissProt database using the BLASTX algorithm (https://blast.ncbi.nlm.nih.gov).

Assay [2] concerns Basic-leucine zipper (bZIP) TF family protein. The assay can be described thus: Yeast two-hybrid (Y2H) screen. It counts as binding, A. thaliana. The settings on record: bait AtPNP-A amino acids 26–130, prey At2g31370.1. On the procedure:
as §1

Another assay concerns CAT2, catalase 2. The assay can be described thus: Yeast two-hybrid (Y2H) screen. It counts as binding, A. thaliana. Conditions: bait AtPNP-A amino acids 26–130, prey At4g35090.1. The method, then: as §1
Assay [3] has as its system CLA, 1-deoxy-D-xylulose-5-phosphate synthase. The assay can be described thus: Yeast two-hybrid (Y2H) screen. It counts as binding, A. thaliana. Conditions: bait AtPNP-A amino acids 26–130, prey At4g15560.1. On the procedure: as §1
For assay [4], the system named is CRF6, cytokinin response factor 6. The assay can be described thus: Yeast two-hybrid (Y2H) screen. The assay is classed as binding, A. thaliana. The settings on record: bait AtPNP-A amino acids 26–130, prey At3g61630.1. On the procedure: as §1
The subject of assay [5] is ER, enhanced of rudimentary homologue, ATER. The assay can be described thus: Yeast two-hybrid (Y2H) screen. It counts as binding, A. thaliana. Conditions: bait AtPNP-A amino acids 26–130, prey At5g10810.1. On the procedure: as §1
For assay [6], the system named is ERF7, ethylene response factor 7. The assay can be described thus: Yeast two-hybrid (Y2H) screen. The assay is classed as binding, A. thaliana. The settings on record: bait AtPNP-A amino acids 26–130, prey At3g20310.1. On the procedure:
as §1

Assay [7] relates to ERP/AP2, ethylene response factor. The assay can be described thus: Yeast two-hybrid (Y2H) screen. The assay is classed as binding, A. thaliana. The settings on record: bait AtPNP-A amino acids 26–130, prey At5g07580.1. On the procedure:
as §1

The subject of another assay is FED A, ferredoxin 2. The assay can be described thus: Yeast two-hybrid (Y2H) screen. It counts as binding, A. thaliana. Conditions: bait AtPNP-A amino acids 26–130, prey At1g60950.1. The method, then:
as §1

Assay [8] has as its system HISN5B, histidine biosynthesis 5B. The assay can be described thus: Yeast two-hybrid (Y2H) screen. The assay is classed as binding, A. thaliana. Conditions: bait AtPNP-A amino acids 26–130, prey At4g14910.1. The method, then: as §1
In assay [9] the test system is IGPD, imidazole glycerol-phosphate dehydratase. The assay can be described thus: Yeast two-hybrid (Y2H) screen. The assay is classed as binding, A. thaliana. The settings on record: bait AtPNP-A amino acids 26–130, prey At3g22425.1. On the procedure: as §1
Assay [10] relates to MAC5S, MOS4-associated complex subunit 5C. The assay can be described thus: Yeast two-hybrid (Y2H) screen. The assay is classed as binding, A. thaliana. The settings on record: bait AtPNP-A amino acids 26–130, prey At5g07060.1. On the procedure: as §1
The next assay relates to NUDX1, nudix hydrolase 1. The assay can be described thus: Yeast two-hybrid (Y2H) screen. It counts as binding, A. thaliana. Conditions: bait AtPNP-A amino acids 26–130, prey At1g68760.1. The method, then:
as §1

Another assay deals with PLL4, poltergeist like 4. The assay can be described thus: Yeast two-hybrid (Y2H) screen. The settings on record: bait AtPNP-A amino acids 26–130, prey At2g28890.1. The assay is classed as binding, A. thaliana. The method, then:
as §1

Assay [11] relates to Protein containing PAM2 motif. The assay can be described thus: Yeast two-hybrid (Y2H) screen. The settings on record: bait AtPNP-A amino acids 26–130, prey At4g14270.1. The assay is classed as binding, A. thaliana. On the procedure:
as §1

Assay [12] relates to RAP2.12, ethylene response factor. The assay can be described thus: Yeast two-hybrid (Y2H) screen. The assay is classed as binding, A. thaliana. Conditions: bait AtPNP-A amino acids 26–130, prey At1g53910.1. On the procedure: as §1
The test system of the next assay is RCA, rubisco activase. The assay can be described thus: Yeast two-hybrid (Y2H) screen. It counts as binding, A. thaliana. Conditions: bait AtPNP-A amino acids 26–130, prey At2g39730.1. The method, then:
as §1

Assay [13] has as its system SHA1, shoot apical meristem arrest 1. The assay can be described thus: Yeast two-hybrid (Y2H) screen. It counts as binding, A. thaliana. The settings on record: bait AtPNP-A amino acids 26–130, prey At5g63780.1. The method, then:
as §1

The next assay relates to Unknown protein. The assay can be described thus: Yeast two-hybrid (Y2H) screen. It counts as binding, A. thaliana. Conditions: bait AtPNP-A amino acids 26–130, prey At5g39570.1. On the procedure:
as §1

Turning to `CC(C)C[C@@H]1NC(=O)[C@H](CC(N)=O)NC(=O)[C@H](CC(N)=O)NC(=O)[C@H](CCCCN)NC(=O)[C@H](C(C)C)NC(=O)CNC(=O)[C@H](C(C)C)NC(=O)[C@H](C(C)C)NC(=O)[C@H](CC(C)C)NC(=O)[C@H]([C@@H](C)O)NC(=O)[C@H](CCC(=O)O)NC(=O)[C@H](CCCNC(=N)N)NC(=O)[C@H](CCC(N)=O)NC(=O)[C@H]([C@@H](C)O)NC(=O)CNC(=O)[C@H](Cc2ccc(O)cc2)NC(=O)[C@@H](NC(=O)[C@H](C)NC(=O)[C@H](CO)NC(=O)[C@H](CCCNC(=N)N)NC(=O)[C@@H](NC(=O)[C@H](Cc2ccc(O)cc2)NC(=O)[C@@H]2CCCN2)[C@@H](C)O)CSSC[C@@H](C(=O)NCC(=O)N[C@@H](CCCNC(=N)N)C(=O)N[C@@H](CCCNC(=N)N)C(=O)N[C@@H](Cc2ccc(O)cc2)C(=O)N[C@@H](CCCNC(=N)N)C(=O)N[C@H](C(=O)N[C@@H](CCCNC(=N)N)C(=O)N[C@@H](CCCCNC(=O)CCCC[C@@H]2SC[C@@H]3NC(=O)N[C@@H]32)C(=O)O)C(C)C)NC(=O)[C@H](C)NC(=O)[C@H](CCCNC(=N)N)NC(=O)CNC(=O)[C@H](CC(N)=O)NC(=O)[C@H](CCC(N)=O)NC(=O)[C@H](Cc2c[nH]c3ccccc23)NC1=O` [pAtPNP-A] (H-PYTRSACYGTQRETLVVGVKNNLWQNGRACGRRYRVRK(Biotin)-OH; disulfide 7-30; N-terminus and C-terminus assumed), the “CAT2 activity in WT plants (zymogram)” value with CAT2 is “increased CAT2 activity in WT plants compared to the mutants”.
With “AtPNP-A: An A. thaliana PNP, termed AtPNP-A (At2g18660; Q9ZV52)”, the Strength of binding entry in assay [1] was “Weak”; in [2], “Weak”; with CAT2, catalase 2 it was “Weak”; in assay [3] it was “Weak”; in [4], “Weak”; in assay [5], “Weak”. Moreover, the Strength of binding result in [6] is listed as “Strong”; in assay [7], “Strong”; in the assay with FED A, ferredoxin 2 it was “Weak”; in [8], “Moderate”; in assay [9] it was “Strong”; in [10], “Strong”. The Strength of binding result in the assay with NUDX1, nudix hydrolase 1 is recorded as “Moderate”; with PLL4, poltergeist like 4, “Strong”; in assay [11], “Moderate”; in [12] it was “Strong”; in the assay on RCA, rubisco activase, “Strong”; in assay [13] it was “Strong”. Moreover, the Strength of binding entry in the assay with Unknown protein was “Weak”.
